Laboratory results: paper PMC2947513, “Identification of an Archaeal Presenilin-Like Intramembrane Protease” (PLoS ONE, 2010)

Biological target: T1, MCMJR1 (Methanoculleus marisnigri, UniProt A3CWV0)
T1 construct: gene Memar_1924; full-length; N-terminal His6-SUMO fusion cut off with ULP1; expressed in E. coli Rosetta (DE3) pLysS; detergent-purified; catalytic D162 and D220; eight predicted TMDs
T1 sequence (A3CWV0 1-301): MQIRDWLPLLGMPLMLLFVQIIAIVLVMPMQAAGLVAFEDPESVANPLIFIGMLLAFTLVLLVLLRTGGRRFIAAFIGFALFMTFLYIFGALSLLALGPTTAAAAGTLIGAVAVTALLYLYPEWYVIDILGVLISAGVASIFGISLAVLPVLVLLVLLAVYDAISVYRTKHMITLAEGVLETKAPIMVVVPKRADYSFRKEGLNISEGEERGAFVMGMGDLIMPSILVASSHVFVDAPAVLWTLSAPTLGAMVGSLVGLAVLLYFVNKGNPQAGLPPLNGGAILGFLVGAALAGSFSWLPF
Test: cleavage of Gurken-TMD (MBP chimera), anti-MBP western blot with densitometry
Assay type: biochemical
Conditions: transition-state analog; 0.8 µM enzyme, 2 h pre-incubation at 37 °C, 0.8 µM Gurken-TMD, 8 h; 31C at 10-100 µM; IC50 not given

complete inhibition of activity: ~ 100 µM
Compound: COC(=O)C(NC(=O)C(CC(C)C)NC(=O)N(Cc1ccccc1)CC(O)C(Cc1ccccc1)NC(=O)OC(C)(C)C)C(C)C (stereo not shown) [31C]
